Where two headings read alike, the source gives them in different places.
Experiments:
TEM-1 β-lactamase = TEM-1 β-lactamase (Escherichia coli, UniProt P62593); assay: Cell-free β-lactamase inhibition study (nitrocefin hydrolysis); assay type: biochemical; conditions: 10 min pre-incubation at 37° C., nitrocefin substrate
Experimental: (§1) Cell-Free-β-Lactamase Inhibition Study
(§2) Assays are performed with β-lactamases expressed in the pET system (Novagen, San Diego, Calif.) without signal peptides. They contain an N-terminal hexa-Histidine tag that is used for purification on Ni-NTA (Qiagen, Hilden, Germany). The compounds are prepared as 50 mM stocks in DMSO and diluted into buffer P1 (50 mM phosphate, pH 7) to a final concentration of 10% DMSO. All further dilutions are done in P2 (P1 with 10% DMSO). Enzyme and compound dilutions are pre-incubated for 10 min at 37° C. and the reaction is started with the addition of pre-warmed (37° C.) nitrocefin at a final concentration of […]. […] The initial velocity is determined and IC50 values are calculated using non-linear regression and sigmoidal dose response analysis with the PRISM 4.0 software (Graphpad Software Inc., San Diego, Calif.).

SHV-1 β-lactamase = SHV-1 β-lactamase (Klebsiella pneumoniae, UniProt P0AD64); assay: as above; assay type: biochemical; conditions: 10 min pre-incubation at 37° C., nitrocefin substrate
SHV-1 β-lactamase, sequence (P0AD64 whole entry, looked up): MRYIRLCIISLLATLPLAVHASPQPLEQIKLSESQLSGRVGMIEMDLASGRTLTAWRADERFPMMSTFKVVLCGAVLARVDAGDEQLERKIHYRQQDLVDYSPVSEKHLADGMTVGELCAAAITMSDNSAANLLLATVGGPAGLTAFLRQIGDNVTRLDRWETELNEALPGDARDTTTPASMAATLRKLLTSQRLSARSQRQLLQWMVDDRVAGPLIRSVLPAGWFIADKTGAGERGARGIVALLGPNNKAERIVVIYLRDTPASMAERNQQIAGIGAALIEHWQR
Experimental: as §1, §2

TEM-1 β-lactamase, sequence (P62593 whole entry, looked up): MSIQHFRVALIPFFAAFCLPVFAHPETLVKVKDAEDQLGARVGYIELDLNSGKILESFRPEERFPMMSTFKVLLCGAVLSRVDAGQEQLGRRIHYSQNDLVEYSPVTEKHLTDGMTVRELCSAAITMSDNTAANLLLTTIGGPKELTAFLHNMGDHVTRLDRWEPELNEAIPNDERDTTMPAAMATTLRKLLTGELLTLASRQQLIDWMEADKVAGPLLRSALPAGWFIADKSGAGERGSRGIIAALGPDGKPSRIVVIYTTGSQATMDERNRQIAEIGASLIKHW

O=C(O)C=C1O[C@@H]2CC(=O)N2C1(C/C=C/c1ccccc1)C(=O)OCc1ccccc1 (single isomer, unassigned) [Example 28] was tested, and the IC50 (TEM-1 β-lactamase) was 45700 nM and the IC50 (SHV-1 β-lactamase; SHV-1, read-out: IC50) was 9320 nM.
In the case of C=CCC(C=O)=C1O[C@@H]2CC(=O)N2C1(CC=C)C(=O)OCc1ccccc1 (stereo partly drawn) [Example 3, (5R)-2-Allyl-3-[1-formyl-but-3-enylidene]-7-oxo-4-oxa-1-aza-bicyclo[3.2.0]heptane-2-carboxylic acid benzyl ester], the IC50 (TEM-1 β-lactamase) is reported as 8390 nM.
In the case of C=CC/C(CO)=C1/O[C@@H]2CC(=O)N2C1C(=O)OCc1ccccc1 (stereo partly drawn) [Example 38a, (5R)-3-[1-Hydroxymethyl-but-3-en-(Z)-ylidene]-7-oxo-4-oxa-1-aza-bicyclo[3.2.0]heptane-2-carboxylic acid benzyl ester], the IC50 (TEM-1 β-lactamase) is reported as 1950 nM and the IC50 (SHV-1 β-lactamase; SHV-1, read-out: IC50) is reported as 1710 nM.
Work on COC(=O)C1C(=C(CCCc2ccccc2)C(=O)O)O[C@@H]2CC(=O)N12 (stereo partly drawn) [Example 53, (5R)-3-(1-Carboxy-4-phenyl-butylidene)-7-oxo-4-oxa-1-aza-bicyclo[3.2.0]heptane-2-carboxylic acid methyl ester] yielded an IC50 (TEM-1 β-lactamase) of 72.8 nM and an IC50 (SHV-1 β-lactamase; SHV-1, read-out: IC50) of 219 nM.
CC1CC(=C2O[C@@H]3CC(=O)N3C2C(=O)O)C(=O)O1 (stereo partly drawn) [Example 50, (5R)-3-(5-Methyl-2-oxo-dihydro-furan-3-ylidene)-7-oxo-4-oxa-1-aza-bicyclo[3.2.0]heptane-2-carboxylic acid] was tested, and the IC50 (TEM-1 β-lactamase) was 4.2 nM.
In the case of O=CC(CC=CCO)=C1O[C@@H]2CC(=O)N2C1C(=O)OCc1ccccc1 (stereo partly drawn) [Example 7, (5R)-3-[1-Formyl-5-hydroxy-pent-3-enylidene]-7-oxo-4-oxa-1-aza-bicyclo[3.2.0]heptane-2-carboxylic acid benzyl ester], the IC50 (TEM-1 β-lactamase) is reported as 78.4 nM and the IC50 (SHV-1 β-lactamase; IC50, SHV-1) is reported as 217 nM.
C=CCC1(C(=O)OCc2ccccc2)/C(=C/CO)O[C@@H]2CC(=O)N21 (stereo partly drawn) [Example 40, (5R)-2-Allyl-3-[2-hydroxy-ethylidene]-7-oxo-4-oxa-1-aza-bicyclo[3.2.0]heptane-2-carboxylic acid benzyl ester] was tested, and the IC50 (TEM-1 β-lactamase) was 23600 nM.
Work on O=CC=C1O[C@@H]2CC(=O)N2C1(CC=CCO)C(=O)OCc1ccccc1 (single isomer, unassigned) [Example 9] yielded an IC50 (TEM-1 β-lactamase) of 828 nM and an IC50 (SHV-1 β-lactamase; SHV-1, read-out: IC50) of 1040 nM.
In the case of O=C1OC(CI)CC1=C1O[C@@H]2CC(=O)N2C1C(=O)OCc1ccccc1 (single isomer, unassigned) [Example 41], the IC50 (TEM-1 β-lactamase) is reported as 0.2 nM and the IC50 (SHV-1 β-lactamase; SHV-1, read-out: IC50) is reported as 0.4 nM.
Work on COC(=O)C1/C(=C2/CC(CI)OC2=O)O[C@@H]2CC(=O)N12 (stereo partly drawn) [Mixture of Example 43 and Example 44] yielded an IC50 (SHV-1 β-lactamase; SHV-1, read-out: IC50) of 4.3 nM.
Compound COC(=O)C1(C/C=C/c2ccccc2)C(=CC=O)O[C@@H]2CC(=O)N21 (single isomer, unassigned) [Example 15] has an IC50 (TEM-1 β-lactamase) of 4270 nM and an IC50 (SHV-1 β-lactamase; SHV-1, read-out: IC50) of 4430 nM.
With COC(=O)C1C(=C(C/C=C/c2ccccc2)C(=O)O)O[C@@H]2CC(=O)N12 (stereo partly drawn) [Example 34, (5R)-3-(1-Carboxy-4-phenyl-but-3-enylidene)-7-oxo-4-oxa-1-aza-bicyclo[3.2.0]heptane-2-carboxylic acid methyl ester] the IC50 (TEM-1 β-lactamase) was 21.7 nM and the IC50 (SHV-1 β-lactamase; SHV-1, read-out: IC50) was 50.3 nM.
With O=CC=C1O[C@@H]2CC(=O)N2C1(CC=CCO)C(=O)OCc1ccccc1 (single isomer, unassigned) [Example 8] the IC50 (TEM-1 β-lactamase) was 5640 nM.
Compound O=CC=C1O[C@@H]2CC(=O)N2C1(C/C=C/c1ccccc1)C(=O)OCc1ccccc1 (single isomer, unassigned) [Example 6] has an IC50 (TEM-1 β-lactamase) of 2790 nM and an IC50 (SHV-1 β-lactamase; SHV-1, read-out: IC50) of 3950 nM.
O=CC=C1O[C@@H]2CC(=O)N2C1(C/C=C/c1ccccc1)C(=O)OCc1ccccc1 (stereo partly drawn) [Example 5, (5R)-7-oxo-3-[2-oxo-ethylidene]-2-(3-phenyl-allyl)-4-oxa-1-aza-bicyclo[3.2.0]heptane-2-carboxylic acid benzyl ester] showed an IC50 (TEM-1 β-lactamase) of 4920 nM and an IC50 (SHV-1 β-lactamase; SHV-1, read-out: IC50) of 7140 nM.
Work on COC(=O)C1(C/C=C/c2ccccc2)C(=CC=O)O[C@@H]2CC(=O)N21 (single isomer, unassigned) [Example 14] yielded an IC50 (TEM-1 β-lactamase) of 19600 nM and an IC50 (SHV-1 β-lactamase; SHV-1, read-out: IC50) of 85100 nM.
With O=C(O)C=C1O[C@@H]2CC(=O)N2C1(C/C=C/c1ccccc1)C(=O)OCc1ccccc1 (single isomer, unassigned) [Example 27] the IC50 (TEM-1 β-lactamase) was 426 nM and the IC50 (SHV-1 β-lactamase; SHV-1, read-out: IC50) was 624 nM.
O=C(O)C(CC=CCN(Cc1ccccc1)C(=O)OCc1ccccc1)=C1O[C@@H]2CC(=O)N2C1C(=O)OCc1ccccc1 (stereo partly drawn) [Example 58, (5R)-3-[5-(Benzyl-benzyloxycarbonyl-amino)-1-carboxy-pent-3-enylidene]-7-oxo-4-oxa-1-aza-bicyclo[3.2.0]heptane-2-carboxylic acid benzyl ester] gave an IC50 (TEM-1 β-lactamase) of 1.4 nM and an IC50 (SHV-1 β-lactamase; SHV-1, read-out: IC50) of 0.6 nM.
Compound CC(=O)OCC=CCC1(C(=O)OCc2ccccc2)C(=CC=O)O[C@@H]2CC(=O)N21 (stereo partly drawn) [Example 11, (5R)-2-(4-Acetoxy-but-2-enyl)-7-oxo-3-[2-oxo-ethylidene]-4-oxa-1-aza-bicyclo[3.2.0]heptane-2-carboxylic acid benzyl ester] has an IC50 (TEM-1 β-lactamase) of 7310 nM.
CC(=O)OCC=CCC1(C(=O)OCc2ccccc2)C(=CC=O)O[C@@H]2CC(=O)N21 (stereo partly drawn) [Example 12, (5R)-2-(4-Acetoxy-but-2-enyl)-7-oxo-3-[2-oxo-ethylidene]-4-oxa-1-aza-bicyclo[3.2.0]heptane-2-carboxylic acid benzyl ester] gave an IC50 (TEM-1 β-lactamase) of 5900 nM.
For C=CCC(C(=O)O)=C1O[C@@H]2CC(=O)N2C1C(=O)OCc1ccccc1 (stereo partly drawn) [Example 24, (5R)-3-(1-Carboxy-but-3-enylidene)-7-oxo-4-oxa-1-aza-bicyclo[3.2.0]heptane-2-carboxylic acid benzyl ester], the IC50 (TEM-1 β-lactamase) was 30.6 nM and the IC50 (SHV-1 β-lactamase; SHV-1, read-out: IC50) was 62.2 nM.
In the case of O=C1OC(CI)CC1=C1O[C@@H]2CC(=O)N2C1C(=O)OCc1ccccc1 (single isomer, unassigned) [Example 42], the IC50 (TEM-1 β-lactamase) is reported as 1.7 nM and the IC50 (SHV-1 β-lactamase; SHV-1, read-out: IC50) is reported as 0.8 nM.
Compound COC(=O)C1(C/C=C/c2ccccc2)C(=CC(=O)O)O[C@@H]2CC(=O)N21 (single isomer, unassigned) [Example 35] has an IC50 (TEM-1 β-lactamase) of 1560 nM and an IC50 (SHV-1 β-lactamase; SHV-1, read-out: IC50) of 2310 nM.
With CC1C/C(=C2\O[C@@H]3CC(=O)N3C2C(=O)OCc2ccccc2)C(=O)O1 (single isomer, unassigned) [Example 46] the IC50 (TEM-1 β-lactamase) was 0.4 nM and the IC50 (SHV-1 β-lactamase; SHV-1, read-out: IC50) was 0.5 nM.
In the case of CC1C/C(=C2\O[C@@H]3CC(=O)N3C2C(=O)OCc2ccccc2)C(=O)O1 (single isomer, unassigned) [Example 45], the IC50 (TEM-1 β-lactamase) is reported as 1.7 nM and the IC50 (SHV-1 β-lactamase; IC50, SHV-1) is reported as 3.4 nM.
CCCC(C(=O)O)=C1O[C@@H]2CC(=O)N2C1C(=O)O (stereo partly drawn) [Example 51, (5R)-3-(1-Carboxy-butylidene)-7-oxo-4-oxa-1-aza-bicyclo[3.2.0]heptane-2-carboxylic acid] gave an IC50 (TEM-1 β-lactamase) of 254 nM and an IC50 (SHV-1 β-lactamase; SHV-1, read-out: IC50) of 436 nM.
Work on C=CCC(C=O)=C1O[C@@H]2CC(=O)N2C1C(=O)OCc1ccccc1 (stereo partly drawn) [Example 1, (5R)-3-(1-Formyl-but-3-enylidene)-7-oxo-4-oxa-1-aza-bicyclo[3.2.0]heptane-2-carboxylic acid benzyl ester] yielded an IC50 (TEM-1 β-lactamase) of 66.6 nM.
With C=CCC1(C(=O)OCc2ccccc2)C(=CC=O)O[C@@H]2CC(=O)N21 (stereo partly drawn) [Example 2, (5R)-2-Allyl-7-oxo-3-[2-oxo-ethylidene]-4-oxa-1-aza-bicyclo[3.2.0]heptane-2-carboxylic acid benzyl ester] the IC50 (TEM-1 β-lactamase) was 945 nM.
CC(=O)OCC=CCC(C=O)=C1O[C@@H]2CC(=O)N2C1C(=O)OCc1ccccc1 (stereo partly drawn) [Example 10, (5R)-3-[5-Acetoxy-1-formyl-pent-3-enylidene]-7-oxo-4-oxa-1-aza-bicyclo[3.2.0]heptane-2-carboxylic acid benzyl ester] was tested, and the IC50 (TEM-1 β-lactamase) was 140 nM.
C=CCC(C(=O)O)=C1O[C@@H]2CC(=O)N2C1C(=O)OC (stereo partly drawn) [Example 32, (5R)-3-(1-Carboxy-but-3-enylidene)-7-oxo-4-oxa-1-aza-bicyclo[3.2.0]heptane-2-carboxylic acid methyl ester] gave an IC50 (TEM-1 β-lactamase) of 122 nM and an IC50 (SHV-1 β-lactamase; SHV-1, read-out: IC50) of 339 nM.
O=C(OCc1ccccc1)C1C(=C(CO)C/C=C/c2ccccc2)O[C@@H]2CC(=O)N12 (stereo partly drawn) [Example 39, (5R)-3-(1-Hydroxymethyl-4-phenyl-but-3-enylidene)-7-oxo-4-oxa-1-aza-bicyclo[3.2.0]heptane-2-carboxylic acid benzyl ester] was tested, and the IC50 (TEM-1 β-lactamase) was 4120 nM and the IC50 (SHV-1 β-lactamase; SHV-1, read-out: IC50) was 5610 nM.
Compound O=CC(C/C=C/c1ccccc1)=C1O[C@@H]2CC(=O)N2C1C(=O)OCc1ccccc1 (stereo partly drawn) [Example 4, (5R)-3-[1-Formyl-4-phenyl-but-3-enylidene]-7-oxo-4-oxa-1-aza-bicyclo[3.2.0]heptane-2-carboxylic acid benzyl ester] has an IC50 (TEM-1 β-lactamase) of 89 nM.
Compound C=CCC(C=O)=C1O[C@@H]2CC(=O)N2C1C(=O)OC (stereo partly drawn) [Example 16, (5R)-3-[1-Formyl-but-3-enylidene]-7-oxo-4-oxa-1-aza-bicyclo[3.2.0]heptane-2-carboxylic acid methyl ester] has an IC50 (TEM-1 β-lactamase) of 65.2 nM and an IC50 (SHV-1 β-lactamase; SHV-1, read-out: IC50) of 80.5 nM.
For COC(=O)C1C(=C(C=O)C/C=C/c2ccccc2)O[C@@H]2CC(=O)N12 (stereo partly drawn) [Example 13], the IC50 (TEM-1 β-lactamase) was 639 nM.
[N-]=[N+]=NCC1C/C(=C2\O[C@@H]3CC(=O)N3C2C(=O)OCc2ccccc2)C(=O)O1 (stereo partly drawn) [Example 48, (5R)-3-(5-Azidomethyl-2-oxo-dihydro-furan-3-ylidene)-7-oxo-4-oxa-1-aza-bicyclo[3.2.0]heptane-2-carboxylic acid benzyl ester] was tested, and the IC50 (TEM-1 β-lactamase) was 2.4 nM and the IC50 (SHV-1 β-lactamase; SHV-1, read-out: IC50) was 4.2 nM.
CC(C)(C)C(=O)OCOC(=O)C1C(=C(C/C=C/c2ccccc2)C(=O)O)O[C@@H]2CC(=O)N12 (stereo partly drawn) [Example 37, (5R)-3-(1-Carboxy-4-phenyl-but-3-enylidene)-7-oxo-4-oxa-1-aza-bicyclo[3.2.0]heptane-2-carboxylic acid 2,2-dimethyl-propionyloxymethyl ester] was tested, and the IC50 (TEM-1 β-lactamase) was 44.2 nM and the IC50 (SHV-1 β-lactamase; SHV-1, read-out: IC50) was 141 nM.

From patent US9120808B2 (NABRIVA THERAPEUTICS AG, priority 2009, dated 2015)
